Test results reported in patent US9410142B2, “Dendrimer-based excipients for the attenuation of protein aggregation” (Massachusetts Institute of Technology, priority 2010, dated 2016).

Assays:
[1] = molecular target: T1, α-chymotrypsinogen A (aCgn) (Bos taurus, UniProt P00766); experiment: aCgn aggregation (monomer loss) at 52.5° C. by size exclusion HPLC; type: physicochemical, Bovine; details: for relative rate constant for aCgn monomer loss: additive concentration near 0.2 M; for aCgn t95/t95, 0 (Shelf-Life Extension Factor): isotonic concentrations, 20 mM sodium citrate pH 5, 52.5° C., time for 5% loss of protein vs no additive
Procedure: The aggregation of aCgn was accelerated by incubating samples at an elevated temperature. […] In addition to all aggregation experiments being conducted at that temperature, all samples contained 10 mg/mL aCgn, held at pH 5.0 using a 20 mM sodium citrate buffer. 50 μL aliquots of each protein-cosolute mixture were placed in 0.2 mL polymerase chain reaction (PCR) tubes and then incubated in a Bio-Rad Mycycler thermal cycler with a timer initiated when the thermal cycler reached the desired temperature. Each series contained 12 samples and up to 8 different mixtures were tested at the same time during any given experiment. Samples were removed periodically and immediately placed in an ice bath to quench the aggregation reaction. The length of each experiment was planned so that the extent of reaction was such that at least 20% of the protein aggregated, making changes in the rate of aggregation pronounced. After at least five minutes in the ice bath, the samples were briefly spun in a minicentrifuge to remove precipitated aggregates and then transferred to autosampler vials.
All aCgn samples were first treated with phenylmethylsulfonyl fluoride to inhibit residual amounts of active enzyme and, after dialysis, solutions were frozen, rather than lyophilized, in 0.3 mL aliquots and used within 6 months. […] Solutions for the aggregation study were prepared by first preparing a solution of the cosolute of interest in a 20 mM sodium citrate pH 5 buffer at a concentration double that of interest (adjusting the pH to 5 if needed with the appropriate acid or an 8 M sodium hydroxide solution), then mixing 0.3 mL of this solution with 0.3 mL of a thawed aCgn solution. This solution was then divided into twelve aliquots, each 50 μL in volume, and incubated at an elevated temperature, as described below.
15 μL, of each aCgn sample were injected into an Agilent 1200 series HPLC, equipped with a Zorbax GF-250 (4.6×250 mm, 4 micron) size exclusion column and a UV-Vis detector, during a sequence. The HPLC mobile phase contained 25 mM citric acid monohydrate, 25 mM sodium acetate, and 200 mM sodium chloride with the pH adjusted to 4.0 using sodium hydroxide. The flow rate was set at 1 mL/min and samples were monitored at 280 nm.
Peak area at each time point was compared to the peak area for an unstressed sample to create a monomer loss profile normalized with respect to the initial concentration. Each profile was compared to a profile for a sample containing no cosolute to determine the change in aggregation rate upon addition of the cosolute. For a control, each aggregation experimental setup had one protein solution that contained no cosolute to verify that the baseline aggregation rate remained constant amongst all experiments.
The most notable consequence of perturbing a protein's environment is the enhancement or inhibition of protein aggregation. Deyoung L R et al. (1993) Accounts Chem Res 26:614-620; Fink A L (1998) Fold Des 3:R9-R23. The guanidinium-modified dendrimers were added to model protein solutions and incubated at an elevated temperature to determine how they influence the rate of this degradation pathway. […] At low dendrimer concentrations (0.05 M), the rate of monomer loss in the presence of the surface-modified dendrimer is slower than when compared to the reference solution. However, this aggregation rate reduction is insignificant when compared to the rate reduction induced by a high concentration of other commonly used additives such as arginine hydrochloride (ArgHCl), which is also depicted in the figure. Furthermore, as the concentration of the surface-modified dendrimer is increased, the aggregation rate reduction decreases until ultimately, the rate of aggregation is increased. At a concentration of 0.2 M, the surface-modified dendrimer induced rapid aggregation, causing a 50% loss in about 10 minutes as opposed to 30 minutes for the solution containing no cosolute. […]

Concanavalin A (Con A) = Concanavalin A (Con A) (Canavalia ensiformis, UniProt P02866); experiment: Con A aggregation / shelf-life at pH 6.5 and 37° C.; type: physicochemical; details: isotonic concentrations, 40 mM sodium phosphate pH 6.5, 37° C., time for 5% loss of protein vs no additive
Procedure: This Shelf-Life Extension Factor was determined by comparing the length of time, t95, for a 5% loss of protein when in the presence of the compounds to the original length of time, t95,0 for a 5% loss. For comparison purposes, isotonic concentrations (as determined by VPO) of the compounds were used and Shelf-Life Extension Factor values for commonly used excipients at isotonic concentrations are shown as well. Shelf-life values of aCgn were determined at 52.5° C. and at 37° C. for Con A.

[2] = molecular target: T1, α-chymotrypsinogen A (aCgn); experiment: Preferential interaction with aCgn by vapor pressure osmometry (VPO); type: physicochemical, Bovine; details: for Γ23/[3] preferential interaction with aCgn: 50 mg/mL aCgn, 20 mM sodium citrate pH 5, maximum dendrimer 0.2 mol/L; for Γexp preferential interaction coefficient of aCgn: 0.17-[…] dendrimer salt, VPO
Procedure: Osmolality measurements were carried out according to the previously described procedure. For improved accuracy, all samples were prepared gravimetrically using a Mettler Toledo balance with a precision of 0.1 mg. Partial molar volume values of the
Stock solutions of both BSA and lysozyme and stock solutions of the cosolutes were each prepared in a 40 mM sodium phosphate buffer, pH 6.0 (aCgn measurements were conducted in 20 mM sodium citrate buffer, pH 3.5 or pH 5.0). Stock solutions of the cosolutes were used so that a series of samples could be easily produced with varying solute concentrations by dilution with water and buffer. The protein stock solutions were further purified by placing the solutions under dialysis for 48 hours at room temperature against two changes of buffer (1 L each). […] To determine the concentration, samples of each stock solution were diluted gravimetrically with water to a final optical density of about 1.0 and the concentration determined spectrophotometrically with a PerkinElmer Lambda 35 UV/Vis spectrometer. It should be noted that the protein stock solutions were stored at 4° C. and used within one week of their preparation.
[formula] A Wescor Vapro® vapor pressure osmometer (model 5520) was used for all osmometry measurements. The instrument was calibrated using 0.1, 0.29, and 1 mol/kg osmolality standards provided by Wescor. Due to slight drifts in the calibration points, the instrument was recalibrated after every four measurements and the thermocouple was cleaned daily using concentrated ammonium hydroxide followed by a rinse with HPLC grade water. […] The data sets for each cosolute included at least 16 individually made solutions (both for the sets with and without the protein). Each sample contained approximately 80 μL of solution (40 μL of diluted cosolute stock solution and 40 μL of the protein stock solution). A minimum of three measurements on each solution were made. If the standard deviation for a particular solution was greater than 2 mmol/kg, more measurements were taken or another sample was prepared. For a given solute, data representing the dependence of osmolality on solute molality were fitted by a quadratic equation, with all fitting parameters floated. Data were weighted by the standard deviation of the individual osmolality measurements for the same solution using the nonlinear fitting program Igor Pro.
To gain further insight into how the modified dendrimer salts inhibit protein-protein interactions, preferential interaction coefficient (Γ23) values at various concentrations were determined, both experimentally via vapor pressure osmometry (VPO) measurements and computationally via MD simulations. The experimental results for the interaction between modified generation 0 PAMAM dendrimers and aCgn are expressed in Table 2, which summarizes the polynomial fit and uncertainty of the experimental data. Theoretical preferential interaction coefficient values were computed from the MD simulation using the procedure outlined in our previous work. Baynes B M and Trout B L (2003) J Phys Chem B 107:14058-14067; Shukla D et al. (2009) J Phys Chem B 113:12546-12554.

Structure (SMILES)	aCgn aggregation suppression compared with other salt forms / generations (FIG. 5, 6, 8) ([1]; 10 mg/mL aCgn, pH 5, 52.5° C.)	relative rate constant for aCgn monomer loss ([1]; 10 mg/mL aCgn, pH 5, 52.5° C.)	aCgn t95/t95, 0 (Shelf-Life Extension Factor) [1]	Con A t95/t95, 0 (Shelf-Life Extension Factor) (Concanavalin A (Con A))	Γ23/[3] preferential interaction with aCgn [2] [mol/mol]	Γexp preferential interaction coefficient of aCgn [2]	Con A t95/t95, 0 (Shelf-Life Extension Factor) (Concanavalin A (Con A); listed as Dend. 0 Gdm(H2PO4))	Con A t95/t95, 0 (Shelf-Life Extension Factor) (Concanavalin A (Con A); listed as phosphate form)
N=C(N)NCCNC(=O)CCN(CCC(=O)NCCNC(=N)N)CCN(CCC(=O)NCCNC(=N)N)CCC(=O)NCCNC(=N)N.O=S(=O)(O)O.O=S(=O)(O)O.O=S(=O)(O)O [Gdm(SO4)1/2]	nearly identical ability for inhibiting aggregation as the H2PO4 salt form	approximately 0.02	26.9	5.9	−17.0 ± 4.4	−3.1		
N=C(N)NCCNC(=O)CCN(CCC(=O)NCCNC(=N)N)CCN(CCC(=O)NCCNC(=N)N)CCC(=O)NCCNC(=N)N.O=P(O)(O)O.O=P(O)(O)O.O=P(O)(O)O.O=P(O)(O)O.O=P(O)(O)O.O=P(O)(O)O [Gdm(H2PO4)]		approximately 0.02	18.9		−15.8 ± 5.0	−2.9	1.6	minimal improvement
